Experimental findings from patent publication US10857230B2, “Co-therapy comprising a small molecule CSF-1R inhibitor and an agonistic antibody that specifically binds CD40 for the treatment of cancer” (Janssen Biotech, Inc., priority 2017, dated 2020) are described below.

Molecules are shown by their SMILES.

The test system of the assay is CT26 murine colon carcinoma cells. As to the kind of experiment: Mean Tumor Volume Assay, CT26 (Example 3). The following applies: anti-mCD40 5 mpk, anti-CSF1R 10 mpk i.p. Days 1, 5, 9, 13. Type of assay: in vivo, BALB/c mice. Here is the method: The assay was run using female BALB/c mice (BALB/c AnNcr1, Charles River).
CT26 murine colon carcinoma cells were grown in RPMI-1640 medium containing 10% fetal bovine serum, 2 mM glutamine, 100 units/mL penicillin G sodium, 100 μg/mL streptomycin sulfate, and 25 μg/mL gentamicin. The cells were cultured in tissue culture flasks in a humidified incubator at 37° C., in an atmosphere of 5% CO2 and 95% air.
The CT26 colon cells used for implantation were harvested during log phase growth and re-suspended in cold phosphate buffered saline (PBS).
Each mouse was injected subcutaneously in the right flank with 1×10^6 tumor cells (0.1 mL cell suspension) and tumors were monitored as their volumes approached the target range of 75 to 125 mm^3. Day 1 of the study, animals with individual tumor volumes ranging from 75 to 125 mm^3 were randomized into six different groups (n=12).
The compound of formula of formula (I), rat IgG2a (Clone 2A3) (5.55 mg/mL), anti-CSF1R (purchased from BioXCell anti-mouse CSF1R (CD115), Clone: AFS98, SKU: BE0213, Lot No. 5248/0814) and anti-mCD40 (purchased from BioXCell, anti-mouse CD40, Clone: FGK45, SKU: 13E0016-2-) were used as test compounds, alone or in combination. The compound of formula (I) was stored at room temperature and antibody stock solutions were stored at 4° C. upon receipt. The compound of formula (I) was dissolved in 0.5% HPMC to yield a 1.0 mg/mL dosing solution. The dosing solution was stored at 4° C., protected from light. The rat IgG2a isotype, anti-CD40 and anti-CSF1R dosing solutions were prepared once at the beginning of study by diluting aliquots of the stock solutions with PBS. The dosing solution was stored at 4° C., protected from light.
On Day 1 of the study, groups of BALB/c mice (n=12/group) began dosing according to the following protocol
The vehicle (0.5% HPMC) and compound of formula (I) were administered orally (p.o.). The rat IgG2a isotype control, anti-mCD40 and anti-CSF1R were administered intraperitoneally (i.p.). Rat IgG2a(2A3), the anti-CSF1R and compound of formula (I) were administered at 10 mg/kg. The anti-mCD40 was administered at 5 mg/kg. The dosing volume for all animals was 10 mL/kg (0.2 mL per 20-g mouse) and was adjusted for body weight.

Turning to `CC1(C)CC=C(c2nc(C3CC(C)(C)OC(C)(C)C3)ccc2NC(=O)c2nc(C#N)c[nH]2)CC1` [compound of formula (I), 4-cyano-N-(2-(4,4-dimethylcyclohex-1-en-1-yl)-6-(2,2,6,6-tetramethyltetrahydro-2H-pyran-4-yl)pyridin-3-yl)-1H-imidazole-2-carboxamide], the “Group Mean Tumor Volume, Day 6” value (Day 6, formula (I) 10 mpk b.i.d. × 14 days p.o.) is given as 107.69 mm^3. For the setting “Day 6, relative to Group 1 control, formula (I) 10 mpk b.i.d. × 14 days p.o.”, the “% Tumor Growth Inhibition, Day 6” value is on record as −0.86%. For the setting “Day 8, formula (I) 10 mpk b.i.d. × 14 days p.o.”, the “Group Mean Tumor Volume, Day 8” value was determined as 130.14 mm^3. Also, the “% Tumor Growth Inhibition, Day 8” value (Day 8, relative to Group 1 control, formula (I) 10 mpk b.i.d. × 14 days p.o.) is given as −6.79%. Moreover, the “Group Mean Tumor Volume, Day 10” value (Day 10, formula (I) 10 mpk b.i.d. × 14 days p.o.) was determined as 196.09 mm^3. Moreover, under “Day 10, relative to Group 1 control, formula (I) 10 mpk b.i.d. × 14 days p.o.”, the “% Tumor Growth Inhibition, Day 10” value is −24.44%. The “Group Mean Tumor Volume, Day 13” value (Day 13, formula (I) 10 mpk b.i.d. × 14 days p.o.) was 268.17 mm^3. Moreover, for the setting “Day 13, relative to Group 1 control, formula (I) 10 mpk b.i.d. × 14 days p.o.”, the “% Tumor Growth Inhibition, Day 13” value is listed as −1.27%. The “Group Mean Tumor Volume, Day 15” value (Day 15, formula (I) 10 mpk b.i.d. × 14 days p.o.) was 392.41 mm^3. The “% Tumor Growth Inhibition, Day 15” value (Day 15, relative to Group 1 control, formula (I) 10 mpk b.i.d. × 14 days p.o.) came to 5.39%. The “Group Mean Tumor Volume, Day 16” value (Day 16, formula (I) 10 mpk b.i.d. × 14 days p.o.) is 412.91 mm^3. Also, for the setting “Day 16, relative to Group 1 control, formula (I) 10 mpk b.i.d. × 14 days p.o.”, the “% Tumor Growth Inhibition, Day 16” value is given as −2.37%. Also, under “Day 20, formula (I) 10 mpk b.i.d. × 14 days p.o.”, the “Group Mean Tumor Volume, Day 20” value was 739.49 mm^3. Further, the “% Tumor Growth Inhibition, Day 20” value (Day 20, relative to Group 1 control, formula (I) 10 mpk b.i.d. × 14 days p.o.) was determined as 16.42%.
